How the values were obtained:
[1] = Solid tissue and prostate gland drug quantification 55 days post-implantation; details: for liver level: average; for whole prostate gland level: centre transverse section not included; for level in 5 mm punch biopsies surrounding device implants: prostate tissue within ~5 mm of device
Method: (§1) In this study, three canines, at least fifteen months old, were employed. […] An 18-gauge brachytherapy needle (OD 1.27 mm) was used for device implantation. Clinical observations and body weight were recorded.
(§2) 55 days post-implantation, study animals were euthanized and underwent gross necropsy. […] Prostate glands were trimmed and cut in three section perpendicular to the urethra: a cranial (rostral) section, a 3-5 mm transverse section, and a caudal section. […] The transverse piece in its entirety was sent for histopathological evaluation.

[2] = test system: prostate cancer cells; details: cited from earlier work
[3] = in vivo; details: male, dog
Method: as §1, §2

[4] = Plasma drug quantification after implantation of two devices into canine prostate; parameters: species or system canines; details: male, dog, in vivo
Method: Clinical observations and body weight were recorded.
Placement of devices was confirmed by transrectal ultrasound during implantation and 1, 7, 14, and 28 days post-implantation.
Note that the plasma levels as shown in FIGS. 6A and 6B are in micrograms for the oral dose while the scale is in ng/mL for the device plasma levels.

| concentration at 55 day ([3]; level in 5 mm punch biopsies surrounding device implants) | concentration at 55 day ([3]; liver level) | concentration at 55 day ([3]; whole prostate gland level) | time to plasma steady state [4] | SMILES | level in prostate tissue within ~5 mm of the device (molar) [1] | whole prostate gland level (molar) [1] | liver level [1] | whole prostate gland level [1] | level in 5 mm punch biopsies surrounding device implants [1] | IC50 [2] |
| --- | --- | --- | --- | --- | --- | --- | --- | --- | --- | --- |
|  |  |  |  | C[C@](O)(CS(=O)(=O)c1ccc(F)cc1)C(=O)Nc1ccc(C#N)c(C(F)(F)F)c1 [R-bicalutamide] | 1623 ± 562 nM | 196.6 ± 23.5 nM | 28 ± 9 ng/g | 86 ± 10 ng/g | 698 ± 242 ng/g | ~1000 nM |
|  |  |  |  | C[C@@](O)(CS(=O)(=O)c1ccc(F)cc1)C(=O)Nc1ccc(C#N)c(C(F)(F)F)c1 [S-bicalutamide] |  |  | 19 ± 7 ng/g | 87 ± 11 ng/g | 727 ± 259 ng/g |  |
| 1430 ± 501 ng/g | 47 ± 16 ng/g | 172 ± 21 ng/g | ~4 days | CC(O)(CS(=O)(=O)c1ccc(F)cc1)C(=O)Nc1ccc(C#N)c(C(F)(F)F)c1 (stereo not shown) [bicalutamide] |  |  |  |  |  |  |

From patent publication US12576063B2, “Implantable drug delivery devices for localized drug delivery” (priority 2020, dated 2026)
